Results on two molecules are retold here after patent US20100010098A1, “POLYMORPHS OF RASAGILINE HYDROCHLORIDE” (priority 2008, published 2010).

For data set [1] the following is noted: after storage for 4 weeks at 55° C./90% relative humidity.
The conditions of data set [2]: solid state; suspension with a liquid; compared with Form I.
Description: 9 mg of rasagiline HCl Form I was suspended in 0.15 ml 2-PrOH and stirred for 11 days at 70° C.
b) 50 mg of rasagiline HCl Form I was suspended in 0.23 ml 2-PrOH and stirred for 7 days at 5° C.
20 mg of Form II was added to a suspension of 1.49 g Form III in 6 ml 2-PrOH. After 4 days solid material was isolated by filtration, washed with diethyl ether and was dried overnight at 40° C. in vacuo.

Where a name gives a salt, the structure may show the parent alone. Read-outs that look alike come from different tables or passages of the source.

On to `C#CCN[C@@H]1CCc2ccccc21` [Form II rasagiline hydrochloride, rasagiline hydrochloride], for which, in data set [1] (hydrochloride), the “Chemical Purity (HPLC)” value stood at 100%, the “Color Change” value is given as “No” and the Water uptake entry is listed as “No”. Moreover, the “relative stability of the polymorphic form” value in data set [2] was “more stable in the solid state than the crystalline Form I”.
On to `C#CCN[C@@H]1CCc2ccccc21` [rasagiline mesylate, reference compound], for which, in data set [1], the “Chemical Purity (HPLC)” value amounted to 97.1%; the “Color Change” value was “Yes, brown color”; the Water uptake entry was “Yes”.
